This is an account of results in patent US20250281391A1, “EFFERVESCENT COMPOSITION AND METHOD FOR DETERMINING BITTERNESS PERCEPTION” (BAYER HEALTHCARE LLC, priority 2024, published 2025).

The data set can be described thus: Electric potential experiment (degree of carbonation, carbon dioxide electrode) as surrogate of bitterness perception. It counts as physicochemical. Conditions: Sol. Nos. 26-28, acetaminophen as the API, 100 mL deionized water. The protocol:
Formulations comprising the effervescent combination (sodium bicarbonate and citric acid) and molecules/compositions that impart a bitter taste (such as APIs or compositions comprising APIs) can be prepared according to Tables 1-5 below. Exemplary formulations according to the disclosure were made according to the following general procedure. 100 mL of deionized water from MILLI-Q® Q-POD® water purifier (having about 1.9 ppb total organic content) was weighed out in an appropriately sized glass beaker. The ingredients mentioned in Tables 1-5 below were weighed out and added to the glass beaker containing deionized water, and then the mixture was stirred for 15 minutes until the blend is homogenous. Each ingredient was sieved through a mesh 18 strainer ([…] strainer size means particles won't be greater than 0.0394 inches (1000 microns or 1 mm) in diameter) to remove clumps before weighing. The METTLER TOLEDO® XP6035S was used to measure ingredient weight, but any suitable weighing balance may be used.
Various combinations of bitter tasting molecules/compositions (e.g., APIs or compositions comprising APIs) along with the effervescent combination were prepared as solutions (see Sol. Nos. 1-36 in FIG. 1) per the general procedure described in Example 1. For the electric potential experiment, after the solutions were stirred, a carbon dioxide electrode (which measures the degree of carbonation) was dipped in the glass beaker to assess degree of carbonation (unit is electric potential in mV). The THERMO SCIENTIFIC™ ORION™ VSTAR PRO™ 9502BNWP carbon dioxide electrode was used to measure electrical potential (mV). The METTLER TOLEDO SEVENCOMPACT™ PH meter PD-470 was used to measure the pH. […] The carbon dioxide electrode was rinsed with deionized water and cleaned with a lint free tissue in between samples.

SMILES strings stand for the structures.

As for `CC(=O)Nc1ccc(O)cc1` [acetaminophen], the average electric potential was 22.24 mV (including 0.300 g of the effervescent combination (low end)), 30.4 mV (including 0.400 g of the effervescent combination) and 35.67 mV (including 0.500 g (high end) of the effervescent combination).
